This series can be described thus: N-terminal-to-internal Cys bridging with heterobifunctional cyclopropenone-chloroacetamide linker (CCA): DTT reduction, cyclopropenone condensation with N-terminal Cys 1,2-aminothiol (1,4-thiazepan-5-one), then proximity-driven intramolecular thioether formation between internal Cys thiol and chloroacetamide. Particulars: the molecule shown is the open-chain precursor, PBS pH 7.4, 5% DMSO, 0.01 mM, 25.0 °C, 2.0 h, 2 steps.

The values below come from PMC11344848, “Proximity-driven site-specific cyclization of phage-displayed peptides” (Nature Communications, 2024).

Some results are limits rather than exact numbers.

On to H-CGSGGSGC-[AAA-D1/D2 pIII fusion], for which, under “37-membered ring”, the ring closure, conversion by HPLC is 100%. H-CYKLAEGDKYYIC-[D1/D2 pIII fusion] displayed a ring closure, conversion by HPLC (52-membered ring) of 100%. The molecule H-CPEGYILDDGFCTDIDE-[D1/D2 pIII fusion] yielded a ring closure, conversion by HPLC (49-membered ring) of 100%. As for `N=C(N)NCCC[C@H](NC(=O)[C@@H]1CCCN1C(=O)[C@H](CS)NC(=O)[C@H](CC(N)=O)NC(=O)[C@H](CCC(N)=O)NC(=O)[C@H](Cc1ccccc1)NC(=O)[C@H](Cc1ccc(O)cc1)NC(=O)[C@@H]1CSCC(CCCC(=O)N2CCN(C(=O)CCl)CC2)C(=O)N1)C(=O)NCC(N)=O` (stereo partly drawn) [H-CYFQNCPRG-NH2], for the setting “31-membered ring”, the ring closure, conversion by HPLC is > 95%. As for H-CGGSGGC-[WLAAA-D1/D2 pIII fusion], the ring closure, conversion by HPLC (34-membered ring) came to 100%.

For the setting “40-membered ring”, H-CQPHPGQTC-[AAA-D1/D2 pIII fusion] yielded a ring closure, conversion by HPLC of 100%.
